The values below come from ChEMBL document CHEMBL4834442, “Immunosuppressive 9,10-Secosteroids from the Gorgonian Verrucella umbraculum Collected in the South China Sea” (J Nat Prod, 2021).

SMILES strings stand for the structures. Active and inactive are the calls of the source. The rule behind the calls is not given here.

The nature of data set [1]: Cytotoxicity against C57BL/6 mouse spleen mononuclear cells assessed as cell viability at 0.5 to 1 uM measured after 48 hrs by CCK-8 assay. To be noted: mononuclear cell line, dose 0.5-1 µM. Format: cell-based. Background: Tetrazolium dyes change colour on reduction, which living cells bring about.
The next data set deals with CD4+ve Th. Nature of the data set: Immunosuppressive activity in C57BL/6 mouse SMNCs-derived CD4+ T cells assessed as inhibition of concanavalinA-stimulated cell proliferation at 1 uM measured after 5 to 7 days by CFSE staining based FACScan flowcytometry. Format: functional. To be noted: time 5-7 day.

For the molecule `Cc1ccc(O)cc1CC[C@]1(O)[C@H](O)CC[C@]2(C)[C@@H]([C@H](C)CCCC(C)C)CC[C@H]21`, the Activity entry in data set [1] was “Non-Toxic”. The result in the data set with CD4+ve Th was Active.

With `Cc1ccc(O)cc1CC[C@@H]1[C@H](O)CC[C@]2(C)[C@@H]([C@H](C)CCCC(C)C)CC[C@@H]12` [ASTROGORGIADIOL], the Activity result in data set [1] was “Non-Toxic”. For the same molecule, in the data set with CD4+ve Th, the outcome was Active.

For `Cc1ccc(O)cc1CC[C@]1(O)[C@H](O)CC[C@]2(C)[C@@H]([C@H](C)CC[C@@H](C)C(C)C)CC[C@H]21`, the Activity result in data set [1] is “Non-Toxic”. In addition, the outcome in the data set with CD4+ve Th was Active.

Turning to `Cc1ccc(O)cc1CC[C@@H]1[C@H](O)CC[C@]2(C)[C@@H]([C@H](C)/C=C/[C@@H](C)C(C)C)CC[C@@H]12`, in data set [1], the Activity result is “Non-Toxic”. The result in the data set on CD4+ve Th was Active.

As to `CC(C)=CCC[C@@H](C)[C@H]1CC[C@H]2[C@H](CCc3cc(O)ccc3C)[C@H](O)CC[C@]12C` [CALICOFEROL G], in data set [1], the Activity result was “Non-Toxic”. In addition, the outcome in the data set on CD4+ve Th was Active.

As to `C=C(CC[C@@H](C)[C@H]1CC[C@@H]2[C@]1(C)CC[C@@H](O)[C@@]2(O)CCc1cc(O)ccc1C)C(C)C`, the Activity result in data set [1] was “Non-Toxic”. Further, in the data set with CD4+ve Th, the result was Active.

`Cc1ccc(O)cc1CC[C@]1(O)[C@H](O)CC[C@]2(C)[C@@H]([C@H](C)/C=C/[C@@H](C)C(C)C)CC[C@H]21`: the Activity entry in data set [1] is on record as “Non-Toxic”. For the same molecule, the result with CD4+ve Th was Active.

In the case of `Cc1ccc(O)cc1CC[C@]1(O)[C@H](O)CC[C@]2(C)[C@@H]([C@H](C)CC[C@H](C)C(C)C)CC[C@H]21`, in data set [1], the Activity result was “Non-Toxic”. Also, in the data set on CD4+ve Th, the result was Active.

Consider `C/C=C(/CC[C@@H](C)[C@H]1CC[C@@H]2[C@]1(C)CC[C@@H](O)[C@@]2(O)CCc1cc(O)ccc1C)C(C)C`, for which the Activity entry in data set [1] was “Non-Toxic”. Further, in the data set on CD4+ve Th, the outcome was inactive.

For the molecule `Cc1ccc(O)cc1CC[C@@H]1[C@H](O)CC[C@]2(C)[C@@H]([C@H](C)CCCC(C)C)[C@@H](O)C[C@@H]12` [CALICOFEROL B], the Activity entry in data set [1] is “Non-Toxic”. Further, the outcome in the data set with CD4+ve Th was Active.

As to `Cc1ccc(O)cc1CC[C@]1(O)C(=O)CC[C@]2(C)[C@@H]([C@H](C)/C=C/[C@@H](C)C(C)C)C[C@@H](O)[C@H]21`, the Activity entry in data set [1] is recorded as “Non-Toxic”. Moreover, the outcome in the data set with CD4+ve Th was inactive.

Turning to `Cc1ccc(O)cc1CC[C@]1(O)C(=O)CC[C@]2(C)[C@@H]([C@H](C)/C=C/CC(C)C)CC[C@H]21`, the Activity entry in data set [1] was “Non-Toxic”. Further, in the data set with CD4+ve Th, the outcome was Active.

Consider `Cc1ccc(O)cc1CC[C@]1(O)[C@H](O)CC[C@]2(C)[C@@H]([C@H](C)/C=C/CC(C)C)CC[C@H]21`, for which the Activity entry in data set [1] is on record as “Non-Toxic”. Moreover, the result with CD4+ve Th was Active.

As for `C=C(CC[C@@H](C)[C@H]1CC[C@H]2[C@H](CCc3cc(O)ccc3C)[C@H](O)CC[C@]12C)C(C)C` [CALICOFEROL C], in data set [1], the Activity result is “Non-Toxic”. Besides, in the data set with CD4+ve Th, the outcome was Active.

Consider `Cc1ccc(O)cc1CC[C@]1(O)C(=O)CC[C@]2(C)[C@@H]([C@H](C)/C=C/[C@@H](C)C(C)C)CC[C@H]21`, for which, in data set [1], the Activity entry is recorded as “Non-Toxic”. In addition, the outcome with CD4+ve Th was Active.

Regarding `Cc1ccc(O)cc1CC[C@@H]1[C@H](O)CC[C@]2(C)[C@@H]([C@H](C)/C=C/CC(C)C)CC[C@@H]12`, the Activity entry in data set [1] was “Non-Toxic”. Moreover, the result in the data set with CD4+ve Th was Active.
